Values of other authors as cited in US20250339472A1 (priority 2024, published 2025).
Read-outs that look alike come from different tables or passages of the source.

Legend:
[1] = dog, in vivo
acetylcholinesterase = acetylcholinesterase (Homo sapiens, UniProt P22303)
Sequence of acetylcholinesterase (P22303 32-614, species assumed): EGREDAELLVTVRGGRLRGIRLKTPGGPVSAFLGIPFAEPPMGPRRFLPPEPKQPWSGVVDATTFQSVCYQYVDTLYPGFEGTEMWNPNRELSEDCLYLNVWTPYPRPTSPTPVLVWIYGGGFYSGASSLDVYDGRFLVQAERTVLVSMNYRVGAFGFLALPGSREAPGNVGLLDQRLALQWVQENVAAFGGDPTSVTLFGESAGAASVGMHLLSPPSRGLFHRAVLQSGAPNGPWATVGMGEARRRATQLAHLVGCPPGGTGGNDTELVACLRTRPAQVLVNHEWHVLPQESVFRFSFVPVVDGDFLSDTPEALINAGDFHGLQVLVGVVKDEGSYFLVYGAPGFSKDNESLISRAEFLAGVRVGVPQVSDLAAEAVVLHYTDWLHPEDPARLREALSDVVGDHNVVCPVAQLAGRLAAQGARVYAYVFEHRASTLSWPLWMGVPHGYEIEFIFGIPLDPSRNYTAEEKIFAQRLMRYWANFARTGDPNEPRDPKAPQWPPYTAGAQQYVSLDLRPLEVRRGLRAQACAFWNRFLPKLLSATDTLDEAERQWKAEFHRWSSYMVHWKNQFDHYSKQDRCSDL

## CC1=C(/C=C/C(C)=C/C=C/C(C)=C/C=C/C=C(C)/C=C/C=C(C)/C=C/C2=C(C)C(=O)[C@@H](O)CC2(C)C)C(C)(C)C[C@H](O)C1=O [Astaxanthin—AstaReal®, Astaxanthin]
[1]
  efficacy levels: 0.3 mg/kg/day

## COc1cc(/C=C/C(=O)CC(=O)/C=C/c2ccc(O)c(OC)c2)ccc1O [Curcumin]
acetylcholinesterase
  inhibition of acetylcholinesterase activity: inhibits

## Hyaluronic Acid
More than 26 kg body weight
  Safety levels: 54 mg of HA per day
Up to 26 kg body weight
  Safety levels: 27 mg of HA per day
